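A five-concentration, 48-hour dose response in 96-well plates underlies each endpoint, interpolated linearly between surrounding concentrations. At the GI50, growth is halved. TGI denotes the concentration required for complete inhibition of growth.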

Common to all, as to test: growth of human tumour cells (NCI), 48 h
For experiment [1], the system named is HL-60(TB) leukemia.
Experiment [2] concerns HT29 colon.
Experiment [3] has as its system MDA-MB-435.
The test system of experiment [4] is NCI-H226 lung.
Experiment [5] has as its system NCI-H460 lung.
For experiment [6], the system named is RXF 393 renal.
Experiment [7] has as its system SF-268 CNS.
The test system of experiment [8] is SK-MEL-5 melanoma.
For experiment [9], the system named is SN12C renal.
The subject of experiment [10] is TK-10 renal.

Regarding `Nc1ncnc2c1c(-c1ccc(Oc3ccccc3)cc1)nn2C[C@@H]1SSC[C@@H]1O`, the GI50 in experiment [1] was 0.576 µM; in [2] it was 0.334 µM; in experiment [3], 0.101 µM; in [4], 1.59 µM; in experiment [5], 0.0286 µM; in experiment [6], 1.46 µM. The GI50 in [7] is 0.0375 µM; in experiment [8] it was 0.25 µM; in [9], 0.762 µM; in [10], 0.705 µM. Moreover, the TGI in experiment [1] worked out at 7.89 µM; in [2], 1.7 µM; in experiment [3] it was 0.256 µM; in experiment [4], 3.92 µM; in experiment [5] it was 0.0807 µM; in [6] it was 5.6 µM. The TGI turned out to be 0.53 µM in [7], 0.684 µM in experiment [8], 11 µM in experiment [9] and 2.75 µM in experiment [10].
On to `O=C(O)C1C2C=CC(O2)C1C(=O)Nc1ncccn1` (centres undefined), for which the TGI in experiment [1], in experiment [2], in [3], in experiment [4], in experiment [5] and in [6] was more than 100 µM throughout. The TGI in [7], in experiment [8], in [9] and in [10] was more than 100 µM in each case.
`O=C(O)Cn1ccnc1[N+](=O)[O-]`: the TGI in experiment [1], in [2], in [3], in experiment [4], in [5] and in experiment [6] was more than 100 µM in each case. Also, the TGI in experiment [7], in [8], in experiment [9] and in [10] was more than 100 µM each time.
On to `COc1cc2cc(Oc3ccc(NC(=O)c4cccc5c4OCCO5)cc3)c(C)nc2cc1OC`, for which the GI50 in [1] was 5.38 µM; in experiment [2] it was 6.12 µM; in experiment [3], 7.05 µM; in experiment [4], 3.21 µM; in experiment [5], 8.36 µM; in [6] it was 8.81 µM. Also, the GI50 in experiment [7] was 14.4 µM; in experiment [8], 2.92 µM; in [9] it was 8.4 µM; in [10] it was 15.7 µM. The TGI was more than 100 µM in experiment [1]; more than 100 µM in experiment [2]; more than 100 µM in experiment [3]; 21.2 µM in [4]; more than 100 µM in experiment [5]; more than 100 µM in experiment [6]. The TGI in experiment [7], in [8], in [9] and in [10] was more than 100 µM in each case.
Consider `Fc1cc(-c2nnc3n2N=C(c2ccc(Cl)cc2Cl)CS3)c(Cl)cc1Cl`, for which the GI50 was more than 100 µM in experiment [1]; 40.5 µM in experiment [2]; 24.5 µM in experiment [3]; 36.5 µM in experiment [4]; 37.3 µM in experiment [5]; 51 µM in experiment [6]. For the same compound, the GI50 was 36.6 µM in [7], 26.1 µM in [8], 56.4 µM in experiment [9] and 77.3 µM in experiment [10]. The TGI in experiment [1] is more than 100 µM; in [2], more than 100 µM; in [3], 75.9 µM; in [4] it was more than 100 µM; in experiment [5] it was more than 100 µM; in experiment [6] it was more than 100 µM. Moreover, the TGI in experiment [7] was more than 100 µM; in experiment [8], 65.1 µM; in [9], more than 100 µM; in experiment [10], more than 100 µM.
As for `CC(C)(CO)N=Cc1ccccc1[O-].CC(C)(CO)N=Cc1ccccc1[O-].[Co+2]`, the GI50 is 11.8 µM in [1]; 100 µM in [2]; 38.4 µM in experiment [3]; 27.9 µM in [4]; more than 100 µM in [5]; more than 100 µM in experiment [6]. In addition, the GI50 in [7] is 46.3 µM; in experiment [8], 42.5 µM; in experiment [9], more than 96.6 µM; in experiment [10], 81.3 µM. The TGI was 79.4 µM in experiment [1]; more than 100 µM in [2]; more than 100 µM in [3]; more than 100 µM in experiment [4]; more than 100 µM in experiment [5]; more than 100 µM in experiment [6]. Also, the TGI in experiment [7], in experiment [8], in [9] and in experiment [10] was more than 100 µM each time.
Regarding `O=C(Cc1ccc(/C=C/C(=O)c2ncc[nH]2)cc1)Nc1ccc(C(F)(F)F)cc1`, the GI50 in experiment [1] was 2.03 µM; in experiment [2], 1.09 µM; in experiment [3] it was 2.87 µM; in [4] it was 6.11 µM; in experiment [5], 3.6 µM; in [6], 3.75 µM. Moreover, the GI50 is 3.05 µM in experiment [7], 5.55 µM in experiment [8], 1.87 µM in [9] and 6.63 µM in experiment [10]. Further, the TGI stood at 20 µM in experiment [1]; 4.47 µM in [2]; 11.6 µM in [3]; 13.1 µM in experiment [4]; 10.7 µM in [5]; 8.83 µM in experiment [6]. Also, the TGI in [7] was 9.53 µM; in experiment [8], 10.2 µM; in experiment [9], 8.02 µM; in experiment [10] it was 13.8 µM.
Regarding `COc1ccc(/C=C(/C(=O)n2cnnn2)c2cc(OC)c(OC)c(OC)c2)cc1`, the GI50 is 2.77 µM in experiment [1]; 3.42 µM in experiment [2]; 0.614 µM in experiment [3]; more than 100 µM in experiment [4]; 3.75 µM in experiment [5]; 3.91 µM in experiment [6]. Also, the GI50 is 4.04 µM in experiment [7], 3.12 µM in experiment [8], 5.15 µM in experiment [9] and 7.59 µM in experiment [10]. In addition, the TGI in experiment [1] was more than 100 µM; in experiment [2] it was more than 100 µM; in [3] it was 3.24 µM; in [4], more than 100 µM; in experiment [5], more than 100 µM; in [6], more than 100 µM. Besides, the TGI was more than 100 µM in experiment [7], 29.4 µM in experiment [8], more than 100 µM in experiment [9] and more than 100 µM in experiment [10].
Take `CN(C)CCCC1(c2ccc(F)cc2)OCc2cc(-c3cncc4ccccc34)ccc21` (centres undefined): the GI50 in [1] was 1.81 µM; in [2], 2.36 µM; in experiment [3], 1.71 µM; in experiment [4], 8.65 µM; in [5], 1.73 µM; in experiment [6], 2.51 µM. For the same compound, the GI50 was 3.15 µM in [7], 1.77 µM in experiment [8], 4.05 µM in experiment [9] and 2.83 µM in experiment [10]. The TGI turned out to be 4.15 µM in experiment [1]; 8.23 µM in [2]; 3.22 µM in experiment [3]; 27 µM in experiment [4]; 3.49 µM in experiment [5]; 10.1 µM in experiment [6]. The TGI worked out at 13.9 µM in experiment [7], 3.2 µM in experiment [8], 17 µM in [9] and 12.2 µM in experiment [10].
As for `O=C(CCN1CCCC1)Nc1ccc2c(Nc3ccccc3)c3ccccc3nc2c1`, the GI50 in experiment [1] is 0.264 µM; in experiment [2], 0.521 µM; in experiment [3] it was 1.44 µM; in [4] it was 1.18 µM; in experiment [5] it was 0.0489 µM; in [6], 0.981 µM. Besides, the GI50 in [7] was 0.677 µM; in experiment [8], 1.38 µM; in experiment [9], 0.306 µM; in [10] it was 1.28 µM. For the same compound, the TGI in experiment [1] is 1.61 µM; in experiment [2], 3.14 µM; in experiment [3], 2.84 µM; in [4], 3.53 µM; in [5], 1.2 µM; in experiment [6], 2.65 µM. Also, the TGI in experiment [7] amounted to 2.3 µM; in experiment [8] it was 2.71 µM; in [9], 1.81 µM; in experiment [10], 3.78 µM.
Consider `O=C(O)C1C(C(=O)O)C2(Cl)C(Cl)=C(Cl)C1(Cl)C2(Cl)Cl.[Cd]` (centres undefined), for which the GI50 in experiment [1] was 28.4 µM; in experiment [2], 18.4 µM; in experiment [3] it was 7.61 µM; in experiment [4] it was 34.9 µM; in experiment [5], 3.71 µM; in experiment [6] it was 13.7 µM. For the same compound, the GI50 in [7] was 18.1 µM; in experiment [8], 1.37 µM; in experiment [9] it was 18.4 µM; in [10], 19 µM. The TGI in [1] is 72.1 µM; in experiment [2], 35.9 µM; in experiment [3], 25.2 µM; in experiment [4] it was more than 66.7 µM; in experiment [5], 18 µM; in [6], 30.5 µM. Moreover, the TGI in experiment [7] was found to be 36.8 µM; in experiment [8], 5.63 µM; in experiment [9], 36.1 µM; in [10], 34.7 µM.
For `COc1cc2nnn3c4ncccc4c(N=O)c3c2cc1OC`, the GI50 in experiment [1] is 0.0506 µM; in experiment [2], 1.34 µM; in [3], 3.55 µM; in experiment [4], 6.91 µM; in [5], 3.64 µM; in [6] it was 0.989 µM. In addition, the GI50 in experiment [7] was 0.564 µM; in experiment [8] it was 14.6 µM; in experiment [9] it was 2.54 µM; in experiment [10], 7.98 µM. For the same compound, the TGI in experiment [1] was more than 100 µM; in experiment [2], more than 100 µM; in experiment [3], 32.7 µM; in experiment [4], 44.4 µM; in [5], 22.8 µM; in [7], 19.3 µM. In addition, the TGI was 34 µM in experiment [8], more than 100 µM in experiment [9] and more than 88.6 µM in experiment [10].
As for `Cn1cc(CO)c2ccccc21`, the GI50 is 32.5 µM in experiment [1]; 30.2 µM in experiment [2]; 3.45 µM in experiment [3]; 64.1 µM in experiment [4]; 30.7 µM in [5]; 49.7 µM in experiment [6]. Further, the GI50 in experiment [7] is 60.6 µM; in experiment [8], 48.6 µM; in [9] it was 50.9 µM; in [10] it was more than 100 µM. Also, the TGI is more than 100 µM in experiment [1]; more than 100 µM in experiment [2]; 21 µM in experiment [3]; more than 100 µM in [4]; more than 100 µM in [5]; more than 100 µM in experiment [6]. The TGI in experiment [7], in experiment [8], in experiment [9] and in experiment [10] was more than 100 µM each time.
Regarding `CCCn1cnc2c(SCc3ccccc3)nc(N)nc21`, the GI50 is 65.3 µM in experiment [1]; more than 100 µM in [2]; more than 100 µM in [3]; 30.5 µM in [4]; 42.2 µM in experiment [5]; 24.4 µM in experiment [6]. In addition, the GI50 in experiment [7] is more than 100 µM; in [8] it was 21.2 µM; in [9], more than 100 µM; in experiment [10], 80.5 µM. The TGI in [1], in experiment [2], in experiment [3], in experiment [4], in experiment [5] and in [6] was more than 100 µM throughout. The TGI in experiment [7], in experiment [8], in experiment [9] and in [10] was more than 100 µM throughout.
On to `COc1cc([C@H]2c3[nH]c4ccccc4c3C[C@H]3COC(=O)N32)cc(OC)c1O`, for which the TGI in experiment [1] is 14.5 µM; in experiment [2], 25.3 µM; in [3], more than 100 µM; in experiment [4] it was 28.5 µM; in experiment [5], 23.2 µM; in experiment [6], 1.51 µM. The TGI in [7] is more than 72.1 µM; in experiment [8], 17.4 µM; in experiment [9] it was 59.7 µM; in [10], 27 µM.
Regarding `CN(C)C(=O)SC1=C(c2c(Cl)cccc2Cl)C(=O)c2ccccc21`, the GI50 is 2.84 µM in experiment [1]; 3.47 µM in [2]; 4.54 µM in experiment [3]; 19.9 µM in experiment [4]; 17.4 µM in [5]; 4.18 µM in experiment [6]. For the same compound, the GI50 was 8.9 µM in experiment [7], 7.16 µM in experiment [8], 6.18 µM in experiment [9] and 3.5 µM in [10]. The TGI stood at 6.53 µM in experiment [1]; 11.9 µM in experiment [2]; 15.9 µM in experiment [3]; 59.8 µM in experiment [4]; 37.2 µM in experiment [5]; 8.59 µM in experiment [6]. For the same compound, the TGI came out at 22.7 µM in [7], 19.2 µM in experiment [8], 17.7 µM in experiment [9] and 9.64 µM in [10].

The values are drawn from PubChem BioAssay (NCI).
